This is an account of results in ChEMBL document CHEMBL1201862, “PubChem BioAssay data set” (2004).

For orientation: AC50 means the concentration at which the activity in the assay is half-maximal. What is called IC50 is the midpoint of a concentration-inhibition curve.

SMILES strings stand for the structures. Calls of active or inactive are those of the source.

Assay [1] concerns Candida albicans. Put plainly: Candida growth inhibition combined with fluconazole – CaCi-2 strain, Alamar Blue, dry powder, set 3, dose response (AID 488907). In kind it is functional, organism-based. In general terms: Alamar Blue is a resazurin reagent that responds to reducing activity.
In assay [2] the test system is Candida albicans. Put plainly: resistant Candida growth with fluconazole co-treatment – CaCi-8 strain, Alamar Blue, dry powder, set 2, dose response (AID 488909). In kind it is functional, organism-based.
Assay [3] addresses T1, Short transient receptor potential channel 4 (Mus musculus, UniProt Q9QUQ5).
T1 sequence (Q9QUQ5 whole entry): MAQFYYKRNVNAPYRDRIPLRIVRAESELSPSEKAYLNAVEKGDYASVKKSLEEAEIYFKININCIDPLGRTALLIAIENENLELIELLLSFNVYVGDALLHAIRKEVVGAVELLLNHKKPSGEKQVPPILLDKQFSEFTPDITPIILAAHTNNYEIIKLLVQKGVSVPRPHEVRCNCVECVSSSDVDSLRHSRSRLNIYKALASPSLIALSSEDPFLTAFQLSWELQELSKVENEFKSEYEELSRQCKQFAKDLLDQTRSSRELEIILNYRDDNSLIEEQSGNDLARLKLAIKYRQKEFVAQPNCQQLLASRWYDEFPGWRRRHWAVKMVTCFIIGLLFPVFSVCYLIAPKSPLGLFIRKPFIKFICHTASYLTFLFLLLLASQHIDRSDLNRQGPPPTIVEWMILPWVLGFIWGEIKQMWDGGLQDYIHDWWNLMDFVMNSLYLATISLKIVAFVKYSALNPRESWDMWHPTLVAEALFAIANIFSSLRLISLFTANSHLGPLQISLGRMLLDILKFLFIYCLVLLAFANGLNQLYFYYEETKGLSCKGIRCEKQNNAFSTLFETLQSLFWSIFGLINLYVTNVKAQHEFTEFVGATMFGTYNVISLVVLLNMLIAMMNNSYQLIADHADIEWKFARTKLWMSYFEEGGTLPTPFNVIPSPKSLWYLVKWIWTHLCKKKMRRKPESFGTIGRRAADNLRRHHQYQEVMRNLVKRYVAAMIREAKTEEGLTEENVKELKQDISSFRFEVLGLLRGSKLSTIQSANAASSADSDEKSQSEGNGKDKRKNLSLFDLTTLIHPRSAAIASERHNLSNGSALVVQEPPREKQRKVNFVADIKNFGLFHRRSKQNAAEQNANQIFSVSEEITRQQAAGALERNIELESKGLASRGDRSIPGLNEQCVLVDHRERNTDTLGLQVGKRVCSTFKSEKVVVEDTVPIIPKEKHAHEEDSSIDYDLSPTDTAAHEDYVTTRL
As to the kind of experiment: SAR Analysis for the identification of selective inhibits of the transient receptor potential cation channel C4 (TRPC4): Automated Electrophysiology_2. [Related pubchem assays (depositor defined):AID2256]. It is filed as functional.

In assay [4] the target is T1, Short transient receptor potential channel 4. Put plainly: potency of mouse TRPC4 calcium flux blockers – cell-based, HEK293 TRPC4/mu-opioid, DAMGO stimulus, Fluo-4, dose response (AID 492994). It is filed as functional. In general terms: Calcium flux is commonly read through the fluorescence of an indicator in the cells.
Assay [5] relates to HEK293. Put plainly: cells. In kind it is functional, cell-based. The conditions noted are these: Homo sapiens.
Assay [6] addresses T2, Nuclear receptor subfamily 0 group B member 1 (Homo sapiens, UniProt P51843).
T2 sequence (P51843 whole entry): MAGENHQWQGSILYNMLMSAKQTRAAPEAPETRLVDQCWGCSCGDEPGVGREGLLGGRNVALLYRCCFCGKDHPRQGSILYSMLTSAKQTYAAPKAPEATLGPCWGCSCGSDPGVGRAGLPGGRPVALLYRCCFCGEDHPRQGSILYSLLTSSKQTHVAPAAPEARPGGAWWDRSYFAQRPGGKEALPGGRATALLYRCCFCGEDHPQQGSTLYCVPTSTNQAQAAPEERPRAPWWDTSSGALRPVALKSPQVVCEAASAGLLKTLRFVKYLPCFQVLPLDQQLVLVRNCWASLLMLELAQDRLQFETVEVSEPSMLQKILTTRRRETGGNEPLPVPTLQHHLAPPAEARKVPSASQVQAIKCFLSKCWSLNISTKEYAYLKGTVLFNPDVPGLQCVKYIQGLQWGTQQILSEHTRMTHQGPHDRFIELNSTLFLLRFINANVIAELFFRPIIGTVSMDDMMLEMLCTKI
Put plainly: Luminescence-based cell-based high throughput dose response assay for inhibitors of the orphan nuclear receptor subfamily 0, group B, member 1 (DAX1; NR0B1). [Related pubchem assays (depositor defined):AID504766, AID504790]. In kind it is functional.

As for `CC(C)C(=O)N1CCN(c2ccnc3cc(Cl)ccc23)CC1`, the AC50 in assay [1] is 3.03 µM (active); in assay [2] it was < 0.195 µM (active).
In the case of `Cc1cc(N2CC(C)CC(C)C2)nc2ccccc12` (stereo unspecified), the IC50 in assay [3] was 11.9 µM (active); in assay [4], 12.6 µM (active).
Take `Cc1cc(OCC(=O)N2CCC(C(N)=O)CC2)c2c(C)cc(=O)oc2c1`: the IC50 in assay [5] and in assay [6] was > 67.6 µM (inactive) each time.
